The results in this text go back to patent US20200024278A1, “COMPOSITION COMPRISING ANTIBIOTIC COMPOUND AND AN HETEROCYCLIC COMPOUND AND THEIR USE IN PREVENTING OR TREATING BACTERIAL INFECTIONS” (MUTABILIS, priority 2016, published 2020).

Common to all, as to test: MIC, broth microdilution (CLSI), substance alone or ATB combined with compound at 4 or 8 μg/mL
For orientation: In broth dilution the organism is exposed to a series of concentrations in liquid medium.

For one test, the system named is SAU 29213. Format: cell-based, S. aureus. As to conditions: Staphylococcus aureus. The method in brief:
(§1)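 CLSI broth microdilution in cation-adjusted Mueller-Hinton broth, 5·10^5 CFU/mL log-phase inoculum, 16-20 h at 35 °C in ambient air. Fosfomycin assays supplemented with 25 μg/ml glucose-6-phosphate.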

For the next test, the system named is PAE UFR90. Format: cell-based, P. aeruginosa. As to conditions: Pseudomonas aeruginosa, PAE UFR90. The method in brief:
as §1

The test system of a further test is PAE 105250. Format: cell-based, P. aeruginosa. The note with it: Pseudomonas aeruginosa, PAE 105250. The method in brief: as §1
The subject of a further test is PAE UFR48. Format: cell-based, P. aeruginosa. The note with it: Pseudomonas aeruginosa, PAE UFR48. The method, boiled down:
as §1

A further test deals with ECO 190317. Format: cell-based, E. coli. The note with it: Escherichia coli, ECO 190317. The method in brief:
as §1

Another test relates to ECO UFR39. Format: cell-based, E. coli. The note with it: Escherichia coli, ECO UFR39. The method in brief: as §1
In the next test the test system is KPN BAA-1898. Format: cell-based, K. pneumoniae. The note with it: Klebsiella pneumoniae, BAA1898, KPN BAA-1898. The method, boiled down:
as §1

For the next test, the system named is KPN 6299. Format: cell-based, K. pneumoniae. As to conditions: Klebsiella pneumoniae. The method, boiled down: as §1
The next test concerns KPN UFR68. Format: cell-based, K. pneumoniae. The note with it: Klebsiella pneumoniae, substance alone. The method in brief: as §1
Another test relates to KPN UFR42. Format: cell-based, K. pneumoniae. As to conditions: Klebsiella pneumoniae, KPN UFR42. The method, boiled down: as §1
A further test deals with ECL P99. Format: cell-based, E. cloacae. As to conditions: Enterobacter cloacae, ECL P99. The method in brief: as §1
For the next test, the system named is SPN 49619. Format: cell-based, S. pneumoniae. The note with it: Streptococcus pneumoniae, SPN 49619. The method in brief: as §1
The mark [1] stands for this setting: antibiotic alone, read-out: MIC ATB alone.

Like-named read-outs stand apart in the source and are kept apart here. Bounds are passed on as bounds.

Consider `CCN1CCN(C(=O)N[C@@H](C(=O)N[C@@H]2C(=O)N3[C@@H]2SC(C)(C)[C@@H]3C(=O)O)c2ccccc2)C(=O)C1=O` [PIP, Piperacillin, reference compound], for which the MIC stood at 8 µg/mL in the test with SAU 29213 (antibiotic alone, SAU 29213, read-out: MIC ATB alone); 8 µg/mL with SAU 29213 (substance alone, SAU 29213 (MSSA 29213), read-out: MIC); 256 µg/mL in the test with PAE UFR90 (setting [1]); 256 µg/mL with PAE UFR90 (substance alone, read-out: MIC); 128 µg/mL in the test on PAE 105250 (setting [1]); 128 µg/mL in the test with PAE 105250 (substance alone, read-out: MIC). Besides, the MIC in the test with PAE UFR48 (setting [1]) was 256 µg/mL; in the test on PAE UFR48 (substance alone, read-out: MIC) it was 256 µg/mL; in the test on ECO 190317 (setting [1]), over 1020 µg/mL; in the test on ECO 190317 (substance alone, read-out: MIC), over 1020 µg/mL; in the test on ECO UFR39 (setting [1]), over 1020 µg/mL; in the test on ECO UFR39 (substance alone, read-out: MIC) it was over 1020 µg/mL. The MIC is over 1020 µg/mL with KPN BAA-1898 (setting [1]); over 1020 µg/mL with KPN BAA-1898 (substance alone, read-out: MIC); over 1020 µg/mL in the test with KPN 6299 (setting [1]); over 1020 µg/mL with KPN 6299 (substance alone, read-out: MIC); over 1020 µg/mL in the test with KPN UFR68; over 256 µg/mL in the test with KPN UFR42 (setting [1]). Also, the MIC in the test on KPN UFR42 (substance alone, read-out: MIC) is over 256 µg/mL; in the test with ECL P99 (setting [1]), 512 µg/mL; in the test with ECL P99 (substance alone, read-out: MIC), 512 µg/mL; in the test on SPN 49619 (setting [1]) it was 0.5 µg/mL; with SPN 49619 (substance alone, read-out: MIC), 0.5 µg/mL.

For orientation: MIC means the lowest concentration found to suppress growth.
